According to patent publication US8030478B2, “Method for nucleic acid replication and novel artificial base pairs” (priority 2005, dated 2011):
Read-outs that look alike come from different tables or passages of the source.

Molecular target: T1, Klenow fragment lacking exonuclease activity (KF exo−) (Escherichia coli, UniProt P00582, D355A/E357A)
T1 construct: enzyme solution of the Klenow fragment lacking exonuclease activity (KF exo^−, Amersham USB); purchased Amersham USB
Type: biochemical, E. coli
Conditions: for Efficiency (Vmax/KM) / Km / Vmax: 37° C.; for inserted products (KM, Vmax n.d.): 20 minutes, 1500 μM nucleoside 5′-triphosphate, 50 nM enzyme
Experimental: The single nucleotide insertion experiment was performed as described in documents (Non-patent Documents 30-32). A primer (20-mer) labeled with 6-carboxylfluorescein at the 5′-end was annealed with template DNA (35-mer) by heating at 95° C. and slow cooling to 4° C. in 100 mM Tris-HCl (pH 7.5) buffer containing 20 mM MgCl2, 2 mM DTT and 0.1 mg/ml bovine serum albumin. The primer-template duplex solution (10 μM, 5 μl) was mixed with 2 μl enzyme solution of the Klenow fragment lacking exonuclease activity (KF exo^−, Amersham USB). After the mixture was incubated for 2 minutes, each dNTP solution (3 μl) was added to this solution to start the reaction at 37° C. The amount of the enzyme used (5-50 nM), the reaction time (1-35 minutes) and the gradient concentration of each dNTP (0.3-1500 μM) were adjusted to ensure conditions giving 25% or less products. The reaction was stopped with 10 μl stop solution (95% formamide and 20 mM EDTA), and the mixture was immediately heated at 75° C. for 3 minutes. The diluted products were analyzed in an automated ABI377 DNA sequencer equipped with GeneScan software (version 3.0) (Non-patent Document 32). The relative velocity (v0) was calculated by dividing the extent of reaction by the reaction time, and then normalized to the enzyme concentration (20 nM) for the various enzyme concentrations used. Kinetic parameters (KM and Vmax) were obtained from Hanes-Woolf plots of [dNTP]/v0 against [dNTP].
Each parameter was averaged from 3 to 8 data sets.

T1 sequence (P00582 324-928 D355A/E357A): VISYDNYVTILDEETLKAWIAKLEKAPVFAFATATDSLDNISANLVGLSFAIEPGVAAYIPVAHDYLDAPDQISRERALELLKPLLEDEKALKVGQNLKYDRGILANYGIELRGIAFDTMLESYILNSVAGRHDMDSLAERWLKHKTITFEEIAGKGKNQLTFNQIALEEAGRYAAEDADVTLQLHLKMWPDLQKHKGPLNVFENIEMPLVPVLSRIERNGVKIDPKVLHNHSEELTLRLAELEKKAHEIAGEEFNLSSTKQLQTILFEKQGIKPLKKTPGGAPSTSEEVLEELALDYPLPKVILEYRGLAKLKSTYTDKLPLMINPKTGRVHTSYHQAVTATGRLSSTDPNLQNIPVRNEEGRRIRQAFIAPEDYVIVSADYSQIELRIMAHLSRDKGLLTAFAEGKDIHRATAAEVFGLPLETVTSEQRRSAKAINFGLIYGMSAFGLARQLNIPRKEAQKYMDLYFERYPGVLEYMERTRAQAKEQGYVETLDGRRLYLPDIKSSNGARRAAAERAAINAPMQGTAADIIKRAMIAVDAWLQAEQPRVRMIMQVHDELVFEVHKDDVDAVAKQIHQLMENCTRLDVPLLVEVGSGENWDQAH

Row | Compound | Efficiency (Vmax/KM) (template (N) = A, temp35N-1) | Km (template (N) = A, temp35N-1) [µM] | Vmax (template (N) = A, temp35N-1) [% min^−1] | Efficiency (Vmax/KM) (template (N) = Ds, temp35N-1) | Km (template (N) = Ds, temp35N-1) [µM] | Vmax (template (N) = Ds, temp35N-1) [% min^−1] | Efficiency (Vmax/KM) (template (N) = G, temp35N-1) | Km (template (N) = G, temp35N-1) [µM] | Vmax (template (N) = G, temp35N-1) [% min^−1] | Efficiency (Vmax/KM) (template (N) = Pa, temp35N-2) | Km (template (N) = Pa, temp35N-2) [µM] | Vmax (template (N) = Pa, temp35N-2) [% min^−1] | other results
1 | O=Cc1cccn1[C@H]1C[C@H](O)[C@@H](COP(=O)(O)OP(=O)(O)OP(=O)(O)O)O1 [dPaTP] | 5.2 × 10^4 % min^−1M^−1 | 330 | 17 | 6.2 × 10^4 % min^−1M^−1 | 340 | 21 | 4.4 × 10^2 % min^−1M^−1 | 140 | 0.061 | 1.5 × 10^3 % min^−1M^−1 | 380 | 0.56 | inserted products (KM, Vmax n.d.) (template (N) = C, temp35N-1): n.d. (Minimal inserted products (<2%) were detected after incubation for 20 minutes with 1500 μM nucleoside 5′-triphosphate and 50 nM enzyme.); Efficiency (Vmax/KM) (template (N) = T, temp35N-1): 3.1 × 10^2 % min^−1M^−1; Km (template (N) = T, temp35N-1): 170 µM; Vmax (template (N) = T, temp35N-1): 0.053 % min^−1
2 | Nc1ccn([C@H]2C[C@H](O)[C@@H](COP(=O)(O)OP(=O)(O)OP(=O)(O)O)O2)c(=O)n1 [dCTP, reference compound] | 1.8 × 10^3 % min^−1M^−1 | 1200 | 2.2 | 8.3 × 10^2 % min^−1M^−1 | 410 | 0.34 | 2.3 × 10^7 % min^−1M^−1 | 0.24 | 5.5 |  |  |  | inserted products (KM, Vmax n.d.) (template (N) = Pa, temp35N-2): n.d.^c (Minimal inserted products (<2%) were detected after incubation for 20 minutes with 1500 μM nucleoside 5′-triphosphate and 50 nM enzyme.); inserted products (KM, Vmax n.d.) (template (N) = Pa′, temp35N-2): n.d. (Minimal inserted products (<2%) were detected after incubation for 20 minutes with 1500 μM nucleoside 5′-triphosphate and 50 nM enzyme.)
3 | dATP [reference compound] |  |  |  | 2.4 × 10^3 % min^−1M^−1 | 150 | 0.36 |  |  |  | 4.3 × 10^4 % min^−1M^−1 | 490 | 21 | Efficiency (Vmax/KM) (template (N) = C, temp35N-2): 4.6 × 10^3 % min^−1M^−1; Km (template (N) = C, temp35N-2): 500 µM; Vmax (template (N) = C, temp35N-2): 2.3 % min^−1; Efficiency (Vmax/KM) (template (N) = Pa′, temp35N-2): 3.7 × 10^4 % min^−1M^−1; Km (template (N) = Pa′, temp35N-2): 570 µM; Vmax (template (N) = Pa′, temp35N-2): 21 % min^−1; Efficiency (Vmax/KM) (template (N) = T, temp35N-2): 4.1 × 10^6 % min^−1M^−1; Km (template (N) = T, temp35N-2): 0.81 µM; Vmax (template (N) = T, temp35N-2): 3.3 % min^−1
